# Measured values: paper PMC10475101, “Selective steroidogenic cytochrome P450 haem iron ligation by steroid-derived isonitriles” (Communications Chemistry, 2023)
# Where “and” joins values, the source holds several entries; their conditions need not be identical. Equal entries are not always repeated.
# Assays:
# CYP3A4 = biological target: T1, CYP3A4 (Homo sapiens, UniProt P08684); assay: in vitro; assay type: binding
# T1 construct: made in house
# Method: (§1) (Adapted from DeVore, et al.)[25] Ligand interaction with the heme iron was evaluated by titrating ligands into a cuvette containing purified CYP17A1[14], CYP2D6 L230D/L231R[26], or CYP3A4[27] and measured using a UV-visible scanning spectrophotometer. Enzyme was diluted to 0.2 µM in 100 mM potassium phosphate buffer (pH 7.4), 20% glycerol, and 100 mM sodium chloride and divided equally between two 5 mL cuvettes to evaluate high-affinity binding. Ligands dissolved in dimethylsulfoxide (DMSO) were added to the sample cuvette and an equal volume of DMSO to the reference cuvette. Difference spectra were recorded from 300 to 500 nm after equilibration of enzyme and ligand. Binding to the enzyme was measured as the difference in maximal and minimal absorbance: A387—A419 for pregnanolone and 3-formyl pregnanolone, and A435—A393 for compound 1 with CYP17A1; A434—A414 for compound 1 with CYP3A4 and CYP2D6. The dissociation constant and maximum spectral change were calculated using tight-binding or quadratic equation. All data fitting was accomplished using GraphPad Prism 9. Details of fitting are provided in Supplementary Information, and numerical data used to generate graphs in Figs. 2, 4 and 5 are provided in Supplementary Data 3 in Excel format.
# CYP106A2 = CYP106A2 (Priestia megaterium, UniProt Q06069); assay: Absorbance difference spectra titration of CYP106A2; assay type: binding, bacterial; conditions: 1 µM CYP106A2
# Sequence of CYP106A2 (Q06069 whole entry): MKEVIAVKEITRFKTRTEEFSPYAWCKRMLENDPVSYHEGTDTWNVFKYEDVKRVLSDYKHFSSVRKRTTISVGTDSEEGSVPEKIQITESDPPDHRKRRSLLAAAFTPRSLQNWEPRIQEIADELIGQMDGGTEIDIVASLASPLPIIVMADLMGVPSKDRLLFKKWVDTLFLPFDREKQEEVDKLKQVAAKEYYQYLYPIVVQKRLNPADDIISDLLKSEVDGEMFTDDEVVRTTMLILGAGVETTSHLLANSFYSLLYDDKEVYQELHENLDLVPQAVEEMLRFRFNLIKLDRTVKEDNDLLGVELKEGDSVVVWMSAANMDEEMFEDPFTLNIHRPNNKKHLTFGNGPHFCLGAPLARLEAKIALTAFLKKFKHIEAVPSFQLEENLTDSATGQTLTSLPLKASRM
# Method: Fig. 5 CYP106A2 interaction with steroidal isonitriles. […] Maximum concentration of 2 (light blue trace) is 20 µM. […] Maximum concentration of 4 is ~10 µM (blue trace). C Overlay of 800 MHz ^1H,^15N-TROSY-HSQC spectra of ^15N-Gly-labeled CYP106A2 with levopimaric acid p-benzoquinone Diels-Alder adduct bound after reduction with sodium dithionite and treatment with carbon monoxide (red), or with 7,17-(bis)isonitrile 4 (blue) after anaerobic reduction with sodium dithionite.
# CYP17A1 [1] = biological target: T2, CYP17A1 (Homo sapiens, UniProt P05093); assay: biochemical
# T2 construct: made in house
# T2 sequence (P05093 24-508 limits assumed): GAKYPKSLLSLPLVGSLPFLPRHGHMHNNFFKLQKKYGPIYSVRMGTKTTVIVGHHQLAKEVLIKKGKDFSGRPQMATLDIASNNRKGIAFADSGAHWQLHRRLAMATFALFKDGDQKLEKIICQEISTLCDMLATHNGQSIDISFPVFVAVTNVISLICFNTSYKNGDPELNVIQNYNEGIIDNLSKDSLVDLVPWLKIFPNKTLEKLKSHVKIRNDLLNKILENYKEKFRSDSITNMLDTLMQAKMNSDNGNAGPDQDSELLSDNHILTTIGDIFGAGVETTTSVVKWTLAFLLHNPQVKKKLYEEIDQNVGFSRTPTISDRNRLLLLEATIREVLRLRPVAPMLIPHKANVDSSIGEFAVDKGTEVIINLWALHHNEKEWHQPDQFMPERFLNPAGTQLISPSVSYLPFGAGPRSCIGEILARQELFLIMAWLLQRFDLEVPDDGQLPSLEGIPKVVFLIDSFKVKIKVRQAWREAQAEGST
# Method: Metabolic activity of CYP17A1 was evaluated by measuring 17α-hydroxylation of progesterone as detected by HPLC with UV detection at 240 nm. A 1:4 ratio of CYP17A1 to recombinant NADPH-cytochrome P450 reductase was mixed and incubated on ice for 20 min. […] Reaction vials were warmed to 37 °C for 3 min, then catalysis was initiated by adding NADPH to a final concentration of 1 mM. After 10 min, metabolism was quenched by adding 300 µL of 20% trichloroacetic acid and placed on ice. The reaction vials were centrifuged to pellet the precipitated protein, then the supernatant was injected onto a C18 column for HPLC identification of product. Metabolite elution was normalized to β-estradiol as an internal standard. A standard curve of known product concentrations was used to convert normalized area under curve to amount of product produced. A four-parameter variable-slope equation was used to fit the data and calculate IC50 values for inhibitors using GraphPad Prism 9.
# 195 Metabolic activity of CYP17A1 was evaluated by measuring 17α-hydroxylation of progesterone as detected
# 196 by HPLC with UV detection at 240 nm. A 1:4 ratio of CYP17A1 to recombinant NADPH-cytochrome P450
# 197 reductase was mixed and incubated on ice for 20 minutes. This mixture was added to buffer (50 mM Tris, pH
# 199 Reaction vials were warmed to 37 °C for three minutes, then catalysis was initiated by adding NADPH to a
# 200 final concentration of 1 mM. After 10 minutes, metabolism was quenched by adding 300 µL of 20%
# 201 trichloroacetic acid and placed on ice. The reaction vials were centrifuged to pellet the precipitated protein,
# 202 then the supernatant was injected onto a C18 column (Phenomenex, Luna, 50 x 4.6 mm) for HPLC. The 30-
# 203 minute HPLC method ran at 0.8 mL/min and started with a mobile phase of 60% acetonitrile, 40% water with
# 204 0.2% acetic acid for five minutes, in creased to 80% acetonitrile over 10 minutes, held at 80% acetonitrile for
# 205 five minutes, 100% acetonitrile for five minutes, then returned to 60% acetonitrile to prepare for the next
# 206 sample. Metabolite elution was normalized to β-estradiol as an internal standard. A standard curve of known
# 207 product concentrations was used to convert normalized area under curve to amount of product produced. A
# 208 four-parameter variable-slope equation (Y=Ymin + (Ymax-Ymin)/(1+(IC50/X)^(Hill Slope))) was used to fit the data
# 209 and calculate IC50 values for inhibitors using GraphPad Prism 9.
# CYP17A1 [2] = biological target: T3, CYP17A1 (Homo sapiens, UniProt P05093); assay: Ligand binding assay (UV-visible difference spectra titration)
# T3 construct: made in house
# T3 sequence (P05093 1-508): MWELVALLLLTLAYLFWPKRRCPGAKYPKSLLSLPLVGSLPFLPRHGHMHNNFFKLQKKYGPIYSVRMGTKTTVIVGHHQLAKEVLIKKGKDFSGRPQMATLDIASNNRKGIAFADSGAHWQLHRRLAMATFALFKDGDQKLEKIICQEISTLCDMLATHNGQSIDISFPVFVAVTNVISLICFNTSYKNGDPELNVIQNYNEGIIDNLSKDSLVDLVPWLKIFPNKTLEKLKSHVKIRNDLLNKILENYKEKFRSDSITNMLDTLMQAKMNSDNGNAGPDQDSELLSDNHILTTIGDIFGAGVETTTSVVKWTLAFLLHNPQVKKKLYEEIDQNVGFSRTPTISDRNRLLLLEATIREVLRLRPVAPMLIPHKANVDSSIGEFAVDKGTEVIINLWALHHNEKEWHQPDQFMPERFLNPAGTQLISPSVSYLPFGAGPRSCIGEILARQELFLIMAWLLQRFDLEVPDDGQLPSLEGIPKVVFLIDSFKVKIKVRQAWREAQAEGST
# Method: as §1
# CYP2D6 L230D/L231R = biological target: T4, CYP2D6 L230D/L231R (Homo sapiens, UniProt P10635, L230D/L231R); assay: as above
# T4 construct: made in house
# T4 sequence (P10635 whole entry L230D/L231R): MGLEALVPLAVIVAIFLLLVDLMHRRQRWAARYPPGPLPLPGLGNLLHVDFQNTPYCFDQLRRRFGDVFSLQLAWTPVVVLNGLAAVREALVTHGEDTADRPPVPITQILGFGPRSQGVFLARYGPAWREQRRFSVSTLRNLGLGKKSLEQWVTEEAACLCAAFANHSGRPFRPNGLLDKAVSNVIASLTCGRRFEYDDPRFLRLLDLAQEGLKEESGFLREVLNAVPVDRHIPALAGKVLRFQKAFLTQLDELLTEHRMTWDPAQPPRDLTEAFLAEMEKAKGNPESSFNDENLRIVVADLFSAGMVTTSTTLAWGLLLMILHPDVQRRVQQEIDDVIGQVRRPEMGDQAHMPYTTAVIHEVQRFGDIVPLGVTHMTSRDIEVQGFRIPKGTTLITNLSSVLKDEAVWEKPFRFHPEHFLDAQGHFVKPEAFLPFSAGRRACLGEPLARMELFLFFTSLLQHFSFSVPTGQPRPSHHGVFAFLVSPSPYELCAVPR
# Method: as §1
# T1 sequence (P08684 whole entry): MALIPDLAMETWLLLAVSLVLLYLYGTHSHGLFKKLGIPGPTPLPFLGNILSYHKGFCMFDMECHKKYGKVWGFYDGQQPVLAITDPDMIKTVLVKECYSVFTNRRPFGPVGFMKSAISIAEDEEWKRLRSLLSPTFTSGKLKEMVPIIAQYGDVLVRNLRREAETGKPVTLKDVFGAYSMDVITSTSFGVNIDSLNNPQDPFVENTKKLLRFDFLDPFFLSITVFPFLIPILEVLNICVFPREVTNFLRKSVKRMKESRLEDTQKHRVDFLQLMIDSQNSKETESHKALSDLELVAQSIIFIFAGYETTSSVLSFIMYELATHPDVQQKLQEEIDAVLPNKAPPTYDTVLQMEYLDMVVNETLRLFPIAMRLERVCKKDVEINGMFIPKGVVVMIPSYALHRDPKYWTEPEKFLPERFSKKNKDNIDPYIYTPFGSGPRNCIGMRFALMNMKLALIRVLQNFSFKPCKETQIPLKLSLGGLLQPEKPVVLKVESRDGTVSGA
smiles,measurement,setting,value
"[C-]#[N+][C@H](C)[C@H]1CC[C@H]2[C@@H]3CC[C@H]4C[C@@H](OC=O)CC[C@]4(C)[C@H]3CC[C@]12C [Compound 1, 3β-formyl-5α-pregnanolone-(R)-20-isonitrile]",contribution of Fe—C dative bond to the free energy of complexation,"CYP3A4; CYP3A4, from Kd of 20-(R)-1 versus parent steroid",~ 6 kJ/mol
same,dissociation constant for CYP3A4 relative to CYP17A1,CYP3A4; CYP3A4 versus CYP17A1,more than a billion times higher
same,Kd,"CYP3A4; human, pH 7.4, dissociation constant (Kd), protein 200 nM, 5 cm cuvette, tight-binding or quadratic equation, Fig. 4B: n = 3, 95% CI 120–215 nM",0.167 µM
same,Soret shift on titration indicating Fe—CN—R bond formation,CYP3A4; titration of CYP3A4,435 nm
same,difference spectrum peak indicative of Fe—CN bond formation,CYP3A4; titration of CYP3A4,435 nm
same,spectral response / binding mode on CYP106A2,CYP106A2,does not cause spectral perturbation
same,spectral response / binding mode on CYP106A2,CYP106A2; listed as 20-(R)-1,no evidence for formation of a Fe—C bonded complex
same,IC50,CYP17A1 [1],1.3 µM
same,slope of the inhibition curve,CYP17A1 [1]; CYP17A1 progesterone hydroxylation,2.4
same,Soret peak shift in difference spectra,CYP17A1 [2]; 2:1 mixture of C20 epimers of 1,430 nm
same,Soret peak after titration (heme spectral shift from 417 nm water-bound),"CYP17A1 [2]; ferric CYP17A1, 430 nm = Fe—C isonitrile bond, 424 nm = type II Fe—N",430 nm
same,dissociation constant estimate (tight binding equation fit),"CYP17A1 [2]; protein 200 nM, 95% CI undefined to 1.7 nM",149 aM
same,dissociation constant for CYP2D6 relative to CYP17A1,CYP2D6 L230D/L231R; CYP2D6 versus CYP17A1,3 million
same,Kd,"CYP2D6 L230D/L231R; protein 200 nM, 5 cm cuvette, n = 2, 95% CI undefined –6.4 nM, read-out: dissociation constant (Kd)",0.00049 µM and ~0.00049 µM
same,Fe—CN—R bond formation on titration,CYP2D6 L230D/L231R; titration of CYP2D6,indicated the formation of the Fe—CN—R bond
